{
  "source": "patent US9550073B2",
  "about": "“Therapeutic agent for allergic rhinitis” (SBI Pharmaceuticals Co., Ltd., priority 2011, dated 2017)",
  "format_in_all_cases": "in vivo, human",
  "key": {"[1]": {"tested_on": "allergic rhinitis due to pollinosis", "test": "ALA-PDT with 635 nm red semiconductor laser into the entire nasal cavity after oral ALA hydrochloride, subjects with pollinosis", "conditions": "20 mg/kg oral", "procedure": "To a total 12 subjects with pollinosis, 7 adult males and 5 adult females, 20 mg/kg of ALA hydrochloride was orally administered, and 6 hours later, 100 J of red semiconductor laser light having a wavelength of 635 nm was irradiated into the nasal cavity for 6 minutes. As a result, symptoms of a severe runny nose and sneezing due to pollinosis of the 12 subjects disappeared ([…]) or abated (5 subjects), and these effects were maintained until at least 1 year after the irradiation."}, "[2]": {"tested_on": "inflamed site of the nasal mucosa", "test": "ALA-PDD: PpIX accumulation in the nasal mucosa after oral ALA hydrochloride", "conditions": "3 subject volunteers with allergic rhinitis; 20 mg/kg oral; 408 nm violet light after about 6 hours", "procedure": "(§1) To 3 subject volunteers with allergic rhinitis, 20 mg/kg of ALA hydrochloride was orally administered, and violet light of 408 nm was irradiated into the nasal cavity after about 6 hours using a bronchoscope enabling fluorescence observation (SAFE-3000 from Pentax) to perform ALA-PDD. […] The light of a red LED (light emitting diode) (FIG. 2) having a wavelength of 635 nm was irradiated on the inflamed site of the nasal mucosa until the red fluorescence could not be visually observed (FIG. 3). More specifically, the red LED light having a wavelength of 635 nm was irradiated for a certain period, followed by discontinuing the PDT irradiation; a bronchoscope (SAFE-3000 from Pentax) was inserted into the nasal cavity by interchanging with the irradiation device; and after observing red light, the PDT irradiation was again performed."}, "allergic rhinitis": {"tested_on": "allergic rhinitis", "test": "ALA-PDT with 635 nm red LED on the inflamed site after oral ALA hydrochloride, subjects with allergic rhinitis", "conditions": "3 subjects; 20 mg/kg oral; 635 nm red LED until red fluorescence no longer visible", "procedure": "as §1"}, "[3]": {"tested_on": "allergic rhinitis due to pollinosis", "test": "ALA-PDT with 635 nm red semiconductor laser after ALA hydrochloride in applied liquid form (transdermal, nasal cavity), subjects with pollinosis", "conditions": "5% by weight in saline on cotton in the nasal cavity for 1 hour, 100 J of 635 nm laser for 6 minutes", "procedure": "Then, it was examined whether or not, even when the ALA hydrochloride was administered in an applied liquid form, it could treat allergic rhinitis. A saline solution comprising 5% by weight of ALA hydrochloride sufficiently soaked in cotton was applied to the nasal cavity of 4 adult male subjects with pollinosis, and the soaked cotton was left in place for 1 hour before being removed. 100 J of red semiconductor laser light having a wavelength of 635 nm was intranasally irradiated for 6 minutes immediately after removing the soaked cotton on 3 of the subjects and 1 hour after removing the soaked cotton on the remaining 1 subject. As a result, symptoms of a severe runny nose and sneezing due to pollinosis of the 4 subjects disappeared for the 1 subject irradiated 1 hour thereafter and abated for the 3 subjects irradiated immediately thereafter. […] In addition, the treatment by the liquid form application is shown to be more excellent treatment than that by oral administration in view of cost effectiveness and time effectiveness because the direct application of an ALA hydrochloride solution around an inflamed site of the nasal mucosa can more decrease the amount of ALA hydrochloride administered than oral administration and PpIX accumulates in a short time in the inflamed site of the nasal mucosa."}, "[4]": {"conditions": "of 12 subjects with pollinosis, 6 hours later 100 J of 635 nm laser for 6 minutes"}},
  "note": "Counter-ions that a name gives are not always drawn.",
  "data": [
    {"smiles": "NCC(=O)CCC(=O)O", "note": "[ALA hydrochloride, 5-aminolevulinic acid]", "values": [
      {"measurement": "time for which the effects were maintained after the irradiation", "setting": "[1]; 12 subjects with pollinosis, 100 J of 635 nm laser for 6 minutes", "result": "at least 1 year"},
      {"measurement": "subjects whose symptoms of a severe runny nose and sneezing abated", "setting": "[1]; [4]", "result": 5, "unit": "subjects"},
      {"measurement": "subjects whose symptoms of a severe runny nose and sneezing disappeared", "setting": "[1]; [4]", "result": 3, "unit": "subjects"},
      {"measurement": "inflamed site of the nasal mucosa by which PpIX was taken up (ALA-PDD fluorescence)", "setting": "[2]", "result": "detected as red fluorescence"},
      {"measurement": "course of symptoms of runny nose and sneezing thereafter", "setting": "allergic rhinitis", "result": "abated over several weeks"},
      {"measurement": "symptoms of a severe runny nose and sneezing until several days after the irradiation", "setting": "allergic rhinitis", "result": "observed in the 3 subjects"},
      {"measurement": "symptoms of a severe runny nose and sneezing, irradiated 1 hour after removing the soaked cotton", "setting": "[3]; 1 subject", "result": "disappeared"},
      {"measurement": "symptoms of a severe runny nose and sneezing, irradiated immediately after removing the soaked cotton", "setting": "[3]; 3 subjects", "result": "abated"}
    ]}
  ]
}
